Test results taken from patent publication US9149038B2, “4-amino-6-(heterocyclic)picolinates and 6-amino-2-(heterocyclic)pyrimidine-4-carboxylates and their use as herbicides” (Dow AgroSciences LLC, priority 2013, dated 2015).
Read-outs that look alike come from different tables or passages of the source.

How the values were obtained:
[1] = tested on: Key Grass and Sedge Weeds as well as Grass Crops; assay: Post-Emergent Test II: postemergent herbicidal activity, visual rating after 14 d (Table 8); assay type: in vivo; details: post-emergence, 336 h; for pest or weed control at 35 g/ha: 35 g ai/ha; for pest or weed control at 70 g/ha: 70 g ai/ha; for pest or weed control at 140 g/ha: 140 g ai/ha
In short: (§1)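 Visual scoring at 14 d, 0 (no injury) to 100 (complete kill), relative to untreated plants. Postemergent overhead track-sprayer application, 187 L/ha, at a top rate plus serial ½×–1/16× rates, to plants grown 7–21 d at about 23–29° C day under a 15 h photoperiod, then subirrigated.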

[2] = tested on: Key Broadleaf Weed and Crop Species; assay: Post-Emergent Test II: postemergent herbicidal activity, visual rating after 14 d (Table 7); assay type: in vivo; details: post-emergence, 336 h; for pest or weed control at 35 g/ha: 35 g ai/ha; for pest or weed control at 70 g/ha: 70 g ai/ha; for pest or weed control at 140 g/ha: 140 g ai/ha
In short: as §1

[3] = barnyardgrass (Echinochloa crus-galli), read-out: Visual Growth Reduction (%) 14 Days After Application ECHCG
[4] = giant foxtail (Setaria faberi), read-out: Visual Growth Reduction (%) 14 Days After Application SETFA
[5] = maize, corn (Zea mays), read-out: Visual Growth Reduction (%) 14 Days After Application ZEAMX
[6] = rice (Oryza sativa), read-out: Visual Growth Reduction (%) 14 Days After Application ORYSA
[7] = wheat, spring (Triticum aestivum), read-out: Visual Growth Reduction (%) 14 Days After Application TRZAS
[8] = yellow nutsedge (Cyperus esculentus), read-out: Visual Growth Reduction (%) 14 Days After Application CYPES
[9] = lambsquarters (Chenopodium album), read-out: Visual Growth Reduction (%) 14 Days After Application CHEAL
[10] = oilseed rape, canola (Brassica napus), read-out: Visual Growth Reduction (%) 14 Days After Application BRSNN
[11] = redroot pigweed (Amaranthus retroflexus), read-out: Visual Growth Reduction (%) 14 Days After Application AMARE
[12] = sunflower (Helianthus annuus), read-out: Visual Growth Reduction (%) 14 Days After Application HELAN
[13] = velvetleaf (Abutilon theophrasti), read-out: Visual Growth Reduction (%) 14 Days After Application ABUTH
[14] = wild poinsettia (Euphorbia heterophylla), read-out: Visual Growth Reduction (%) 14 Days After Application EPHHL

Compound `COC(=O)c1nc(-c2ccc3c(c2)OC(C)(C)O3)nc(N)c1OC` [Compound 67] has a pest or weed control at 35 g/ha [1, 3] of 0 to 29%, a pest or weed control at 70 g/ha [1, 3] of 45 to 59% and a pest or weed control at 140 g/ha [1, 3] of 75 to 84%. The pest or weed control at 35 g/ha [1, 4] was 0 to 29%, the pest or weed control at 70 g/ha [1, 4] was 45 to 59% and the pest or weed control at 140 g/ha [1, 4] was 60 to 74%. The pest or weed control at 35 g/ha [1, 5] was 0 to 29%, the pest or weed control at 70 g/ha [1, 5] was 60 to 74% and the pest or weed control at 140 g/ha [1, 5] was 60 to 74%. The pest or weed control at 35 g/ha [1, 6] was 0 to 29%, the pest or weed control at 70 g/ha [1, 6] was 0 to 29% and the pest or weed control at 140 g/ha [1, 6] was 0 to 29%. The pest or weed control at 35 g/ha [1, 7] was 0 to 29%, the pest or weed control at 70 g/ha [1, 7] was 0 to 29% and the pest or weed control at 140 g/ha [1, 7] was 0 to 29%. It also gave a pest or weed control at 35 g/ha [1, 8] of 0 to 29%, a pest or weed control at 70 g/ha [1, 8] of 0 to 29% and a pest or weed control at 140 g/ha [1, 8] of 45 to 59%. For the same compound, the pest or weed control at 35 g/ha [2, 9] was 0 to 29%, the pest or weed control at 70 g/ha [2, 9] was 0 to 29% and the pest or weed control at 140 g/ha [2, 9] was 0 to 29%. The pest or weed control at 35 g/ha [2, 10] was 0 to 29%, the pest or weed control at 70 g/ha [2, 10] was 0 to 29% and the pest or weed control at 140 g/ha [2, 10] was 0 to 29%. For the same compound, the pest or weed control at 35 g/ha [2, 11] was 0 to 29%, the pest or weed control at 70 g/ha [2, 11] was 0 to 29% and the pest or weed control at 140 g/ha [2, 11] was 0 to 29%. It also gave a pest or weed control at 35 g/ha [2, 12] of 0 to 29%, a pest or weed control at 70 g/ha [2, 12] of 0 to 29% and a pest or weed control at 140 g/ha [2, 12] of 0 to 29%. For the same compound, the pest or weed control at 35 g/ha [2, 13] was 0 to 29%, the pest or weed control at 70 g/ha [2, 13] was 0 to 29% and the pest or weed control at 140 g/ha [2, 13] was 0 to 29%. For the same compound, the pest or weed control at 35 g/ha [2, 14] was 60 to 74%, the pest or weed control at 70 g/ha [2, 14] was 95 to 100% and the pest or weed control at 140 g/ha [2, 14] was 95 to 100%.
`COc1c(N)nc(-c2cc3c(cc2F)OC(F)(F)O3)nc1C(=O)O` [Compound 68] gave a pest or weed control at 35 g/ha [1, 3] of 60 to 74%, a pest or weed control at 70 g/ha [1, 3] of 60 to 74% and a pest or weed control at 140 g/ha [1, 3] of 75 to 84%. The pest or weed control at 35 g/ha [1, 4] was 60 to 74%, the pest or weed control at 70 g/ha [1, 4] was 60 to 74% and the pest or weed control at 140 g/ha [1, 4] was 60 to 74%. The pest or weed control at 35 g/ha [1, 5] was 45 to 59%, the pest or weed control at 70 g/ha [1, 5] was 60 to 74% and the pest or weed control at 140 g/ha [1, 5] was 75 to 84%. For the same compound, the pest or weed control at 35 g/ha [1, 6] was 0 to 29%, the pest or weed control at 70 g/ha [1, 6] was 0 to 29% and the pest or weed control at 140 g/ha [1, 6] was 0 to 29%. For the same compound, the pest or weed control at 35 g/ha [1, 7] was 0 to 29%, the pest or weed control at 70 g/ha [1, 7] was 45 to 59% and the pest or weed control at 140 g/ha [1, 7] was 45 to 59%. The pest or weed control at 35 g/ha [1, 8] was 0 to 29%, the pest or weed control at 70 g/ha [1, 8] was 0 to 29% and the pest or weed control at 140 g/ha [1, 8] was 0 to 29%. It also gave a pest or weed control at 35 g/ha [2, 9] of 0 to 29%, a pest or weed control at 70 g/ha [2, 9] of 0 to 29% and a pest or weed control at 140 g/ha [2, 9] of 0 to 29%. The pest or weed control at 35 g/ha [2, 10] was 0 to 29%, the pest or weed control at 70 g/ha [2, 10] was 0 to 29% and the pest or weed control at 140 g/ha [2, 10] was 0 to 29%. For the same compound, the pest or weed control at 35 g/ha [2, 11] was 0 to 29%, the pest or weed control at 70 g/ha [2, 11] was 0 to 29% and the pest or weed control at 140 g/ha [2, 11] was 0 to 29%. It also gave a pest or weed control at 35 g/ha [2, 12] of 30 to 44%, a pest or weed control at 70 g/ha [2, 12] of 45 to 59% and a pest or weed control at 140 g/ha [2, 12] of 60 to 74%. For the same compound, the pest or weed control at 35 g/ha [2, 13] was 0 to 29%, the pest or weed control at 70 g/ha [2, 13] was 0 to 29% and the pest or weed control at 140 g/ha [2, 13] was 0 to 29%. For the same compound, the pest or weed control at 35 g/ha [2, 14] was 75 to 84%, the pest or weed control at 70 g/ha [2, 14] was 95 to 100% and the pest or weed control at 140 g/ha [2, 14] was 95 to 100%.
Compound `COC(=O)c1nc(-c2cc3c(cc2F)OCO3)nc(N)c1OC` [Compound 69] has a pest or weed control at 35 g/ha [1, 3] of 0 to 29%, a pest or weed control at 70 g/ha [1, 3] of 0 to 29% and a pest or weed control at 140 g/ha [1, 3] of 0 to 29%. For the same compound, the pest or weed control at 35 g/ha [1, 4] was 0 to 29%, the pest or weed control at 70 g/ha [1, 4] was 0 to 29% and the pest or weed control at 140 g/ha [1, 4] was 0 to 29%. For the same compound, the pest or weed control at 35 g/ha [1, 5] was 0 to 29%, the pest or weed control at 70 g/ha [1, 5] was 0 to 29% and the pest or weed control at 140 g/ha [1, 5] was 0 to 29%. For the same compound, the pest or weed control at 35 g/ha [1, 6] was 0 to 29%, the pest or weed control at 70 g/ha [1, 6] was 0 to 29% and the pest or weed control at 140 g/ha [1, 6] was 0 to 29%. It also gave a pest or weed control at 35 g/ha [1, 7] of 0 to 29%, a pest or weed control at 70 g/ha [1, 7] of 0 to 29% and a pest or weed control at 140 g/ha [1, 7] of 0 to 29%. The pest or weed control at 35 g/ha [1, 8] was 0 to 29%, the pest or weed control at 70 g/ha [1, 8] was 0 to 29% and the pest or weed control at 140 g/ha [1, 8] was 0 to 29%. It also gave a pest or weed control at 35 g/ha [2, 9] of 0 to 29%, a pest or weed control at 70 g/ha [2, 9] of 0 to 29% and a pest or weed control at 140 g/ha [2, 9] of 0 to 29%. The pest or weed control at 35 g/ha [2, 10] was 75 to 84%, the pest or weed control at 70 g/ha [2, 10] was 75 to 84% and the pest or weed control at 140 g/ha [2, 10] was 95 to 100%. It also gave a pest or weed control at 35 g/ha [2, 11] of 0 to 29%, a pest or weed control at 70 g/ha [2, 11] of 0 to 29% and a pest or weed control at 140 g/ha [2, 11] of 0 to 29%. It also gave a pest or weed control at 35 g/ha [2, 12] of 0 to 29%, a pest or weed control at 70 g/ha [2, 12] of 45 to 59% and a pest or weed control at 140 g/ha [2, 12] of 60 to 74%. For the same compound, the pest or weed control at 35 g/ha [2, 13] was 0 to 29%, the pest or weed control at 70 g/ha [2, 13] was 0 to 29% and the pest or weed control at 140 g/ha [2, 13] was 0 to 29%. For the same compound, the pest or weed control at 35 g/ha [2, 14] was 0 to 29%, the pest or weed control at 70 g/ha [2, 14] was 60 to 74% and the pest or weed control at 140 g/ha [2, 14] was 75 to 84%.
